Test results as given in paper PMC6804243, “Small-Molecule Inhibition of UBE2T/FANCL-Mediated Ubiquitylation in the Fanconi Anemia Pathway” (ACS Chemical Biology, 2019).
Entries after “also recorded” stand apart in the source; their conditions may differ. Where two headings read alike, the source gives them in different places.

Columns and labels:
UBE2D1 = test system: T1, UBE2D1; test: Gel-based ubiquitylation assay (UBE2D1/GST-FANCLRING), ubiquitylated UBE2D1 species; format: biochemical; conditions: E2 = UBE2D1, E3 = GST-FANCLRING; 30 min at 37 °C
T1 construct: His6 (N); made in house; host or cells: E. coli Rosetta (DE3)
Procedure: (§1) Figure 2 Gel-based ubiquitylation assays with confirmed HTRF hits. […] Western blots (WB) probed for GST or biotin as labeled. Reactions contained 20 nM His6-UBE1, 50 nM E2, 250 nM GST-E3, 500 nM biotinylated ubiquitin: (a) E2 = UBE2T, E3 = GST-FANCLRING, 30 min of reaction at 37 °C; (b) E2 = UBE2D1, E3 = GST-FANCLRING, 30 min of reaction at 37 °C; and (c) E2 = UBE2D1, E3 = GST-RNF8, 10 min of reaction at 37 °C.
(§2) In order to explore the selectivity of CU1, CU2, CU9, CU10, and CU12, we conducted a counter-screen against other E2 and E3 combinations. Since members of the UBE2D family of E2s are known to ubiquitylate multiple substrates in vitro,[13] a ubiquitylation assay featuring UBE2D1 and GST-FANCLRING was performed. With UBE2D1, multiple ubiquitylated GST-FANCLRING species could be observed (Figure 2b).
(§3) Purified protein was concentrated using a Vivaspin-6 concentrator with a 10 kDa MW cut-off (Vivascience) and flash-frozen in small aliquots for storage at […]
Cy5 labelling of ubiquitin. […]
Homogeneous Time-Resolved Fluorescence (HTRF) Assay. […]
(v/v) DMSO. […] Signal was measured at λEx 340 nm and λEm 665 nm and 620 nm using a PHERAstar FS plate reader
(BMG Labtech). A ratio was calculated as [λEm(665)/λEm(620)] × 104 for each well and this was used to determine the percent inhibition for test compounds. […]

UBE2D1 / GST-RNF8 = test system: T2, UBE2D1 / GST-RNF8; test: Gel-based ubiquitylation assay, E2 = UBE2D1, E3 = GST-RNF8; format: biochemical; conditions: 10 min at 37 °C, Western blot
T2 construct: His6 (N); made in house; host or cells: E. coli Rosetta (DE3)
Procedure: as §1
A further ubiquitylation assay was performed with an alternative E3, RNF8, which also plays important roles in the DDR.[14] In contrast to GST-FANCLRING, long polyubiquitin chains were attached to GST-RNF8 by UBE2D1 (Figure 2c).
as §3
(§4) Cy5 labelling of ubiquitin. To a 5 mg/mL solution of recombinant human ubiquitin (Boston Biochem) in 0.1 M NaHCO3 pH 8.3, was added a 4-fold molar excess of Cyanine5 NHS ester (Lumiprobe). The reaction was incubated at 23 °C for 4 hours in the dark. The protein was separated from unreacted dye by passage through a PD-10 desalting column (GE Healthcare) equilibrated with PBS. Purified protein was concentrated using a Vivaspin-6 concentrator with a 3 kDa MW cut-off (Vivascience) and flash-frozen in small aliquots for storage […]
(§5) Homogeneous Time-Resolved Fluorescence (HTRF) Assay. GST-FANCLRING (200 nM) was incubated with anti-GST Tb (CisBio, #61GSTTL) (2.5 ng final) at room temperature for 30 minutes in assay buffer (50 mM Tris-HCl pH 8.0, 1 mM TCEP, 5 mM MgCl2, 0.005% Tween-20). Meanwhile, 10 μL of UBE2T in assay buffer (or assay buffer alone for no enzyme controls) was incubated in a white 384-well plate (Corning) with 20 nL DMSO or compound in DMSO. After 30 minutes, the GST-RINGRING solution was added to an equal volume solution containing His-UBE1 (Boston Biochem) (16 nM), Cy5-ubiquitin (400 nM), ATP (0.8 mM) in assay buffer. 10 μL of this solution was immediately added to each well of the 384 -well plate containing UBE2T or buffer. F inal concentrations: His -UBE1 (4 nM), UBE2T (6 nM), GST -RINGRING (50 nM), Cy5-ubiquitin (100 nM), ATP (0.2 mM), compound (10 or 20 μM) in 0.1 %
(§6) (v/v) DMSO. After a 10 minute incubation at 23 °C, 5 µL of a 50 mM EDTA solution were added to each well to stop the reaction. Signal was measured at λEx 340 nm and λEm 665 nm and 620 nm using a PHERAstar FS plate reader
(§7) (BMG Labtech). A ratio was calculated as [λEm(665)/λEm(620)] × 104 for each well and this was used to determine the percent inhibition for test compounds.
(§8) Gel-based ubiquitylation assays. Assays were carried out in a total volume of 10 µL containing 20 nM His6-UBE1 (Boston Biochem), 50 nM UBE2T, 250 nM GST-E3 and 500 nM biotinylated ubiquitin (Boston Biochem) in buffer (50 […]
(§9) Reaction mixtures were incubated for the indicated time at 37 °C and stopped by the addition of 2X reducing SDS -PAGE sample buffer, separated on NuPAGE Novex 4 –12% Bis/Tris gradient gels (Invitrogen) and visualized by Western blotting using the indicated antibodies (Table S3).
Cell culture. U2OS cells were cultured at 37 °C in a humidified atmosphere and 5% (v/v) CO2 in Dulbecco's Modified Eagle Medium (DMEM; Sigma-Aldrich) supplemented with 10% (v/v) fetal bovine serum (FBS), 100 units/ml of penicillin, […] of streptomycin and 292 μg/mL L-glutamine.
Cell extract preparation and immunoblotting. U2OS cells were lysed in buffer containing 50 mM Tris-HCl pH 7.5, 2% SDS, 10 mM NEM, cocktail protease inhibitor (Roche) and phosphatase inhibitor cocktail followed by sonication 100 µg of extracts were boiled for 5 mins at 95 °C in 5X loading buffer and loaded onto NuPAGE Novex 4–12% Bis/Tris gradient gels
(Invitrogen), or NuPAGE Novex 3-8% Tris/Acetate gradient gels (Invitrogen) for detection of mUb-FANCD2. After separation the gels were transferred to PVDF and the membranes were blocked with Tris-buffered saline containing 0.1% (v/v) Tween-20 (TBST) and 5% (v/v) bovine serum albumin (BSA) and […]

[1] = target: T3, UBE2T/FANCLRING (ubiquitylation of GST-FANCLRING) (Homo sapiens, UniProt Q9NW38); test: biochemical
T3 sequence (Q9NW38 275-375 limits assumed): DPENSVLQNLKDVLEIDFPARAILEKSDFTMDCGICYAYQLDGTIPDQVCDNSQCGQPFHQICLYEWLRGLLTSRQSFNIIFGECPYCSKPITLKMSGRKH
From the text: To identify small-molecule inhibitors of the FA pathway, we developed a high-throughput screen (HTS) compatible assay based on the FA ubiquitylation cascade (see Figure 1a, as well as Figure S1 in the Supporting Information). Given the complexity of the full FA ubiquitylation cascade, we constructed a simplified ubiquitylation reaction that would be robust for HTS purposes yet still provide many relevant protein species for small molecules to interact with. The recombinant protein assay developed used homogeneous time-resolved fluorescence (HTRF) and contained Cy5-labeled ubiquitin, the E1 enzyme UBE1, the E2 enzyme UBE2T, and the RING domain (residues 275–375) of the E3 FANCL (FANCLRING). FANCLRING was used as a surrogate substrate for ubiquitylation in the absence of the FA core and FANCD2/FANCI complexes.
Figure 1 Screening for inhibitors of the FA pathway. (a) Schematic of the HTRF ubiquitylation assay. Ubiquitylation of GST-tagged E3 (FANCLRING) by the E2 (UBE2T) places Cy5-labeled ubiquitin in close proximity to the anti-GST Tb cryptate. Excitation of the Tb cryptate donor results in FRET to the Cy5 acceptor. Simultaneous monitoring of the donor emission (620 nm) and acceptor emission (665 nm) allows for determination of the 665/620 ratio. (b) HTRF screen results showing average inhibition (n = 2) produced by compounds at 20 μM (in-house diversity library; 10 111 compounds) and 10 μM (Selleckchem epigenetic library; 119 compounds). Numbers given in parentheses represent the number of compounds per inhibition threshold.
as §3, §4, §5, §6, §7
Gel-based ubiquitylation assays. Assays were carried out in a total volume of 10 µL containing 20 nM His6-UBE1 (Boston Biochem), 50 nM UBE2T, 250 nM GST-E3 and 500 nM biotinylated ubiquitin (Boston Biochem) in buffer (50

UBE2D1 / GST-FANCLRING = test system: T4, UBE2D1 / GST-FANCLRING; test: Gel-based ubiquitylation assay, E2 = UBE2D1, E3 = GST-FANCLRING; format: biochemical; conditions: 30 min at 37 °C, Western blot
T4 construct: the RING domain (residues 275–375) of the E3 FANCL (FANCLRING); His6 (N); made in house; host or cells: E. coli Rosetta (DE3)
Procedure: as §1, §2, §3, §4, §5, §6, §7, §8, §9
Cell culture. […]

UBE1 = test system: T5, UBE1; test: Gel-based ubiquitylation assay (UBE2T/GST-FANCLRING), autoubiquitylation of UBE1; format: biochemical; conditions: compound 100 μM; Western blot probed for biotin
T5 construct: purchased Boston Biochem

UBE2T / GST-FANCLRING = test system: T6, UBE2T / GST-FANCLRING; test: Gel-based ubiquitylation assay, E2 = UBE2T, E3 = GST-FANCLRING; format: biochemical; conditions: compound 100 μM, 30 min at 37 °C, Western blot
T6 construct: the RING domain (residues 275–375) of the E3 FANCL (FANCLRING); His6 (N); made in house; host or cells: E. coli Rosetta (DE3)

UBE2T = test system: T7, UBE2T; test: Gel-based ubiquitylation assay (UBE2T/GST-FANCLRING), blot probed for UBE2T; format: biochemical; conditions: compound 100 μM; Western blot probed for UBE2T
T7 construct: His6 (N); made in house; host or cells: E. coli Rosetta (DE3)

## O=C(CCc1ccco1)NS(=O)(=O)c1cccc2ncccc12 [CU10]
UBE2D1
  formation of ubiquitylated UBE2D1 species: prevented the formation of any ubiquitylated UBE2D1 species
UBE2D1 / GST-RNF8
  ubiquitylation of GST-RNF8 and UBE2D1: appeared to inhibit the ubiquitylation of all species in the assay
[1]; library stock, 10-point dose-response, read-out: Primary screen IC50
  IC50: 10.9 µM
[1]; ligand efficiency = 1.4(–logIC50)/HAC
  LE: 0.35
[1]; printed beside the structures in Figure S3, read-out: IC50 (Figure S3)
  IC50: 2.1 µM
[1]; read-out: Primary screen % Inhibition (20 M)
  inhibition at 20 µM: 93.8%
UBE2D1 / GST-FANCLRING
  ubiquitylation of GST-FANCLRING: essentially abolished the ubiquitylation of GST-FANCLRING
UBE1
  autoubiquitylation of UBE1: somewhat impaired the autoubiquitylation of UBE1
UBE2T / GST-FANCLRING
  ubiquitylation of GST-FANCLRING (mUb-GST-FANCLRING band): no ubiquitylation of FANCLRING was observed
UBE2T
  ubiquitylation of UBE2T: prevented the ubiquitylation of UBE2T; also recorded: essentially completely inhibited
